Earlier results, collected in patent publication US8828946B2, “Composition comprising interleukin-1 receptor antagonist and corticosteroid” (Orthogen AG, priority 2009, dated 2014).

Experiments:
[1] = test system: moderate rhizarthrosis ri; settings: Case II; injections in the past (patient history)
low facet arthrosis = settings: Case VII; in-patient injections into the low facets (patient history)
[2] = test system: medial knee osteoarthritis ri degree IV and retropatellar; settings: Case V; injections in the past (patient history)
impingement le shoulder = settings: Case IV; previous injections (patient history)
[3] = test system: partial rotator cuff rupture and subacromial constriction with complete shoulder stiffness le; settings: Case IX; numerous injections into the left shoulder (patient history)
[4] = test system: moderate knee osteoarthritis ab degree II-III; settings: Case III; injections into the knee in the past (patient history)

Compound	effect in the treatment of osteoarthritis and degenerative spinal diseases (osteoarthritis; Anakinra alone)	effect in the treatment of osteoarthritis (osteoarthritis; alone, compared to a placebo treatment)	outcome of previous treatment [1]	outcome of previous treatment (low facet arthrosis)	outcome of previous treatment [2]	outcome of previous treatment (impingement le shoulder)	outcome of previous treatment [3]	outcome of previous treatment [4]
Anakinra	does not show any effect	did not show any effects						
C[C@]12CCC(=O)C=C1CC[C@@H]1[C@@H]2C(=O)C[C@@]2(C)[C@H]1CC[C@]2(O)C(=O)CO [cortisone]			without success	without success	without clinical success	without success	without success	unsuccessful
hyaluronic acid					without clinical success			unsuccessful
